Test results taken from patent publication US8765678B2, “Inhibition of the renin-angiotensin system for the treatment of renal, vascular and cartilage pathology” (Mor Research Applications Ltd., priority 2005, dated 2014).
“Also recorded” adds a separate entry of the source.

Assays:
[1] = system: Rat mesangial cells (RMC); assay: Radioactive assay (^35S labeling) of cell-associated GAGs in RMC; type: cell-based; conditions: for cell-associated GAGs (^35S), % of control: RMC
Method: (§1) Rat mesangial cells (RMC): RMC derived from Sprague-Dawley rats (#ATCC-mesangial-CRL-2573) were cultured in DMEM supplemented with 15% fetal calf serum (FCS) and antibiotics, according to ATCC instructions. Mesangial cells are derived from the glomerular interstitium of the kidney and thus serve as a valuable tool for the analysis of the GBM.
(§2) Radioactive assay (^35S labeling): Cells were grown to confluence, and were rendered quiescent in 2% FCS for 24 hours, following which they were transferred to serum-free medium plus one of the following additives: control, PAN 40 μg/ml, PAN+E 200 μg/ml, PAN+E 400 μg/ml, PAN+E 800 μg/ml, PAN+C10^−7M candesartan in the presence of 1 μCi/ml ^35S. Following 24 hours, medium was collected, cells were harvested by trypsinization, and aliquots obtained for cell and protein measurements. Cells were digested with papain as described, followed by extensive dialysis against water containing a non-radioactive sodium sulfate, until water contained less than 100 cpm/ml. Dialysate was transferred to Corex tubes and the same procedure was carried out as described for non-radioactive GAGs. Radioactivity was measured in a beta-counter.

Chondrocytes = assay: Radioactive assay (^35S labeling) of cell-associated GAGs in chondrocytes; type: cell-based
Method: Chondrocytes: Tissue bits from articular cartilage were incubated in-vitro and explant cell cultures were established as described [Nevo et al., 1972, Dev Biol 28: 219-228]. The cell cultures were assessed by immunohistochemistry.
as §2

rats with PAN nephrosis [2] = assay: Blood and urine tests in rats with PAN nephrosis; type: in vivo, rat; conditions: Wistar rats; PAN 75 mg/kg tail vein; enalapril 50 mg/L in drinking water from 3 days prior to PAN; blood day 10
Method: (§3) Animals and treatment regimen—Twenty-six male Wistar rats (Belinson, Israel, 220-260 gr each) were housed in individual metabolic cages, and allowed free access to a standard diet and water. Following an acclimatization period of 3 days, the rats were randomized into three groups: controls, puromycin aminonucleoside-treated (PAN-treated) and PAN+ enalapril treated. Six controls were injected with 0.9% NaCl, and 20 rats were injected with PAN (75 mg/kg, Sigma, St. Louis, Mo.) through the tail vein. Ten of the latter were treated with enalapril (Merck Research Laboratories, 50 mg/L) in their drinking water 3 days prior to PAN injection. On day 9, 24-hour urine collections were performed and the protein content was measured using the Beckman Array-Protein system. On day 10, rats were weighed and blood was collected for measurement of serum albumin, creatinine and cholesterol (Autoanalyzer, Hitachi, Japan). All animal experimentation was conducted according to the guidelines established by the Rabin Medical Center ethical committee for the Care and Use of Laboratory Animals

[3] = system: Human umbilical vein endothelial cells (HUVEC); assay: Radioactive assay (^35S labeling) of cell-associated GAGs in endothelial cells; type: cell-based
Method: Endothelial cells: Human umbilical vein endothelial cells (HUVEC) were isolated by collagenase treatment. Cultures were established in M-199 medium containing 10% FCS, 25 μl/ml endothelial mitogen (Biomedical Technologies, Mass., USA) and antibiotics. HUVEC were passaged by treatment with 0.25% trypsin/0.02% EDTA, and passages 2-3 were used for experiments.
as §2

[4] = system: Rat mesangial cells (RMC); assay: Calorimetric assay of cell-associated GAGs; type: cell-based; conditions: for cell-associated GAGs: 36 hours
Method: as §1
Calorimetric assay: Cell-associated GAGs were isolated from RMC by cetylpyridinium chloride (CPC, Sigma) precipitation, as described by (Nevo et al., 1972). Briefly, cells were rendered quiescent in 2% FCS for 24 hours (i.e., starvation conditions), then incubated in DMEM for 36 hours with PAN 40 μg/ml (Sigma), in the presence of increasing doses of enalaprilat [(E), the active form of enalapril], according to the following protocol: control, PAN, PAN+E 200 μg/ml, PAN+E 400 μg/ml, PAN+E 800 μg/ml. Following thorough rinsing in PBS, RMC were harvested using 0.05% trypsin/EDTA. Following addition of a buffer containing 0.1 M sodium acetate, 0.005 M EDTA (Sigma), 0.005 M cysteine (Sigma), and 0.1% papain (Sigma), pH 5.4, the mixtures were incubated for 48 hours at 65° C. and dialyzed for 24 hours against distilled water. NaCl was added to the dialysate to a final concentration of 30 mM, and mixed well. GAGs were precipitated by the addition of CPC to a final concentration of 0.5% and the solution was incubated overnight at 37° C. The precipitate was collected by centrifugation, dissolved in 2 M CaCl2, reprecipitated with ethanol:ether (2:1), collected by centrifugation and dried. GAGs were determined calorimetrically (uronic acid content×3.3=GAG content) using heparan sulfate as standard and expressed as μg GAGs/10^6 cells.

rats with PAN nephrosis [5] = assay: Electron microscopy morphology of kidney sections; type: in vivo; conditions: PAN injected rat kidney, without or with enalapril treatment
Method: as §3
Tissue preparation: The kidneys were removed rapidly and placed on ice and the cortices were separated from the medulla. Slices of each kidney were fixed in 0.5% glutaraldehyde in phosphate buffered saline (PBS), pH 7.4 for morphological and histochemical studies. […]

[6] = system: GBM of nephrotic PAN rats; assay: CCG binding to the GBM, electron microscopy histochemistry and morphometry; type: in vivo, rat; conditions: for CCG binding to the GBM (electron micrograph): PAN injected rat kidney, without or with enalapril treatment; for CCG binding, particles/μm^2 GBM (morphometric analysis): PAN rats, non-treated or enalapril-treated, control 67.3+5.6; for anionic GAG sites / preservation of GAGs in the GBM: nephrotic PAN rats
Method: as §3
Tissue preparation: The kidneys were removed rapidly and placed on ice and the cortices were separated from the medulla. Slices of each kidney were fixed in 0.5% glutaraldehyde in phosphate buffered saline (PBS), pH 7.4 for morphological and histochemical studies. For electron microscopy (EM), 1 mm^3 tissue blocks of GA-fixed kidneys were washed, dehydrated in ethanol, and embedded in LR-white resin (Polysciences, Wash. Pa.). For EM morphology, similar tissue blocks were post-fixed with 1% Osmium tetroxide (OsO4) in Veronal-acetate buffer, pH 7.4, for 1 hour at 4° C., dehydrated in ethanol and propylene oxide, and embedded in araldite (Polysciences).
Electron microscopy morphology and histochemistry: For EM morphology, ultrathin araldite sections were mounted on 400 mesh grids, stained with uranyl acetate and lead citrate, and coated with carbon. F or EM histochemistry, ultrathin LR-white sections were mounted on 200 mesh nickel grids, coated with formvar films and impregnated with carbon. Polycationic colloidal gold (CCG) was prepared by stabilization of colloidal gold, 12 nm with poly-L-lysine, as described by Weinstein et al., [J Am Soc Nephrol 8: 586-595, 1997]. The sections were stained with CCG, rinsed, and stained with saturated uranyl acetate in 50% ethanol. Examination of all sections was carried out using a JEOL-100B EM at 80 KV.
Morphometry: Analysis of the CCG labeling densities was performed in a blind manner on LR-white-embedded kidney tissue stained with CCG. Analysis was carried out by calculating the density of gold particles/1 μm^2 area of randomly cut membranes. Five rats from each group were studied. In each rat, 100 measurements from 10 glomeruli were performed. All measurements were carried out on digitized electron micrographs at a magnification of 5000, using the NIH-Image 1.49 program for the Macintosh.

[7] = system: inflammatory arthritis in mice; conditions: Dalbeth et al., Rheumatology 44:24-31, 2004; cited from earlier work
[8] = system: Osteoarthritic-induced rat; assay: Osteoarthritis model of partial meniscectomy, intra-articular ACE-I gel; type: in vivo; conditions: rats, composite gel containing 5% captopril in the joint, 6 weeks
Description: Osteoarthritis (OA) was induced in 32 rats using the model of partial meniscectomy of Rolli Moskowitz [Moskowitz, R W and Goldberg V M, J. Rheumatol. 1987 May; 14 Spec No:116-8; Moskowitz, R W et al., Ann Rheum Dis. 1981 December; 40(6):584-92]. The tissues of the control rats undergoing partial meniscectomy (8 rats) were immediately closed by suturing, while to the ACE-I treated group (24 rats), immediately following post partial meniscectomy, a composite gel containing ACE-I (5% captopril) was added prior to suturing the joint layers. After 6 weeks the animals were sacrificed. Prior to termination of the experiment a physical checkup ensured the degree of limping and movement limitation of the operated lower limb using an apparatus conducting a digital measurement of the degree of disability, translated to the pressure in grams activated by the operated limb, versus the healthy limb. Histological sections of the joint, femur and tibia, were prepared and stained with hematoxylin-eosin (H&E) as well as with Alcian blue at pH 2.5 and 1.0, and Masson's trichrome stain (Dako, Calif., U.S.A.). Together, these staining techniques assess proteoglycan content and extracellular matrix deposition.

[9] = chondrocytes pretreated with puromycin
[10] = chondrocytes, pretreatment with puromycin + enalaprilat 200 μg/ml

For `CN(C)c1ncnc2c1ncn2[C@@H]1O[C@H](CO)[C@@H](N)[C@H]1O` [PAN, puromycin aminonucleoside], the “cell-associated GAGs (^35S), % of control” value ([1]; PAN 40 μg/ml, 24 hours) was 69%, the “^35S-GAG cpm ± SD” value (Chondrocytes; [9]) was 4333 ± 108 cpm and the “^35S-GAG, % of control culture” value (Chondrocytes; [9]) was 68%. For the same compound, the serum creatinine (rats with PAN nephrosis [2]) was 0.60 ± 0.01 mg/dL, the “cell associated GAGs (^35S), % of control” value ([3]; PAN 40 μg/ml) was 81% and the “cell-associated GAGs” value ([4]; PAN 40 μg/ml, control 5.03+0.6) was 2.35±0.54 μg GAGs/106 cells. For the same compound, the “podocyte architecture (electron microscopy)” value (rats with PAN nephrosis [5]) was “loss of podocyte architecture in the glomeruli with flattening and effacement of foot processes”, the “CCG binding to the GBM (electron micrograph)” value [6] was “marked decrease in CCG binding to the GBM” and the “CCG binding, particles/μm^2 GBM (morphometric analysis)” value [6] was 39.1±1.0 particles/μm^2 GBM. For the same compound, the “anionic GAG sites / preservation of GAGs in the GBM” value [6] was “decreased anionic GAG sites in the GBM”.
For `CCOC(=O)[C@H](CCc1ccccc1)N[C@@H](C)C(=O)N1Cc2ccccc2C[C@H]1C(=O)O` [quinapril], the “inflammatory arthritis / disease activity” value [7] is listed as “suppress inflammatory arthritis”.
With `CCOc1nc2cccc(C(=O)O)c2n1Cc1ccc(-c2ccccc2-c2nnn[nH]2)cc1` [candesartan] the “cell-associated GAGs (^35S), % of control” value ([1]; PAN + candesartan 10^−7 M (first column of that head, c3)) was 76 ± 6.2%, the “cell-associated GAGs (^35S), % of control” value ([1]; PAN + candesartan 10^−7 M (second column of that head, c4)) was 102% and the “cell associated GAGs (^35S), % of control” value ([3]; PAN + candesartan 10^−7 M) was 107%.
In the case of `C[C@H](CS)C(=O)N1CCC[C@H]1C(=O)O` [captopril], the OA manifestations [8] is reported as “only a mild initiation of OA, evident by minimal fibrillations and cell cloning; also recorded: slows down, and minimizes the OA manifestations” and the “articular cartilage histology (cellularity, proteoglycans)” value [8] is reported as “highly cellular, with a dense presentation of proteoglycans”.
For `C[C@H](N[C@@H](CCc1ccccc1)C(=O)O)C(=O)N1CCC[C@H]1C(=O)O` [enalaprilat], the “cell-associated GAGs (^35S), % of control” value ([1]; PAN + enalaprilat 800 μg/ml) was 80%, the “GAG synthesis (incorporation of ^35S), summary statement” value ([1]; cell type not given, in the presence of PAN) was “significantly increased GAG synthesis to control levels” and the “^35S-GAG, % of control culture” value (Chondrocytes; chondrocytes, in the presence of enalaprilat 200 μg/ml, no puromycin) was 108%. For the same compound, the “^35S-GAG cpm ± SD” value (Chondrocytes; chondrocytes, in the presence of enalaprilat 200 μg/ml, no puromycin, control culture 6331 ± 1075) was 6820 ± 1651 cpm, the “^35S-GAG cpm ± SD” value (Chondrocytes; [10]) was 9636 ± 1848 cpm and the “^35S-GAG, % of control culture” value (Chondrocytes; [10]) was 152%. For the same compound, the “cell associated GAGs (^35S), % of control” value ([3]; PAN + enalaprilat 800 μg/ml) was 96%, the “cell-associated GAGs” value ([4]; PAN 40 μg/ml + E 200 μg/ml) was 2.43+0.42 μg GAGs/10^6 cells and the “cell-associated GAGs” value ([4]; PAN 40 μg/ml + E 400 μg/ml) was 2.8+0.65 μg GAGs/10^6 cells. The “cell-associated GAGs” value ([4]; PAN 40 μg/ml + E 800 μg/ml) was 5.3±0.43 μg GAGs/10^6 cells and the “GAG content, dose dependence” value ([4]; PAN 40 μg/ml + enalaprilat 200-800 μg/ml) was “dose-dependent rise in GAG content”.
In the case of `CCOC(=O)[C@H](CCc1ccccc1)N[C@@H](C)C(=O)N1CCC[C@H]1C(=O)O` [enalapril], the serum cholesterol (rats with PAN nephrosis [2]) is reported as 91.7 ± 10.7 mg/dL, the serum creatinine (rats with PAN nephrosis [2]) is reported as 0.60 ± 0.02 mg/dL and the “CCG binding to the GBM (electron micrograph)” value [6] is reported as “intense CCG binding similar to control”. For the same compound, the “CCG binding, particles/μm^2 GBM (morphometric analysis)” value [6] was 56.0±5.5 particles/μm^2 GBM and the “anionic GAG sites / preservation of GAGs in the GBM” value [6] was “beneficial effect on the preservation of GAGs in the GBM”.
